Assays:
RARα = biological target: T1, RARα (Homo sapiens, UniProt P10276); assay: RAR binding, competition with tritiated retinoid; conditions: read-out: RAR Binding alpha
T1 sequence (P10276 1-462): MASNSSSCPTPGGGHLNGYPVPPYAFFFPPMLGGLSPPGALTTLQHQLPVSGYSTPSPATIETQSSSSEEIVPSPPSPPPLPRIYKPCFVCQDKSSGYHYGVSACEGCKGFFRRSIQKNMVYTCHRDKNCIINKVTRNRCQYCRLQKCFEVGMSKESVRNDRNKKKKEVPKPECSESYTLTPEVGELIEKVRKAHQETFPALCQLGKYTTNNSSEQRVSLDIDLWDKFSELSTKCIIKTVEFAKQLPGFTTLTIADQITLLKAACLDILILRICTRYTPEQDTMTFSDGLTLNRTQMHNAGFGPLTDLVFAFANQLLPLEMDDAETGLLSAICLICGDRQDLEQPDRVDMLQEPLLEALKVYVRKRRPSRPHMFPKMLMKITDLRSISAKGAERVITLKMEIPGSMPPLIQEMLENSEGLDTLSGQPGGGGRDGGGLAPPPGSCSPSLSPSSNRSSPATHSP
Description: In addition to the cotransfection data, the binding of selected compounds of the present invention to the RAR and RXR receptors was also investigated according to the methodology described in M. F., Boehm, et al., “Synthesis and Structure-Activity Relation-ships of Novel Retinoid X Receptor Selective Retinoids”, 37 J. Med. Chem., 2930 (1994); M. F. Boehm, et al., “Synthesis of High Specific Activity [^3H]-9-cis Retinoic Acid and Its Application for Identifying Retinoids with Unusual Binding Properties”, 37 J. Med. Chem., 408 (1994), and E. A. Allegretto, et al., “Characterization and Comparison of Hormone-Binding and Transactivation Properties of Retinoic Acid and Retinoid X Receptors Expressed in Mammalian Cells and Yeast”, 268 J. Biol. Chem., 22625 (1993), the disclosures of which are herein incorporated by reference.
Non-specific binding was defined as that binding remaining in the presence of 500 nM of the appropriate unlabelled compound. At the end of the incubation period, bound ligand was separated from free. The amount of bound tritiated retinoid was determined by liquid scintillation counting of an aliquot (700 μL) of the supernatant fluid or the hydroxylapatite pellet.
After correcting for non-specific binding, IC50 values were determined. The IC50 value is defined as the concentration of competing ligand needed to reduce specific binding by 50%. The IC50 value was determined graphically from a log-logit plot of the data. The Ki values were determined by application of the Cheng-Prussof equation to the IC50 values, the labeled ligand concentration and the Kd of the labeled ligand.

RXR:RAR heterodimer = RXR:RAR heterodimer co-transfection assay (RARa Synergy CTF) in CV-1 cells; type: cell-based, human; conditions: for RARa Synergy CTF % Efficacy: agonist efficacy
Description: In the co-transfection assay, cloned cDNA for one or more IRs (e.g. human RARα, RXRα, or PPARγ), alone or in combination (i.e. for heterodimer assays) under the control of a constitutive promoter (e.g., the SV 40, RSV or CMV promoter) is introduced by transfection (a procedure to introduce exogenous genes into cells) into a background cell substantially devoid of endogenous IRs. These introduced gene(s) direct the recipient cells to make the IR protein(s) of interest. A further gene is also introduced (co-transfected) into the same cells in conjunction with the IR gene(s). This further gene, comprising the cDNA for a reporter protein, such as firefly luciferase (LUC), controlled by an appropriate hormone responsive promoter containing a hormone response element (HRE). This reporter plasmid functions as a reporter for the transcriptional-modulating activity of the target IR(s). Thus, the reporter acts as a surrogate for the products (mRNA then protein) normally expressed by a gene under control of the target receptor(s) and their native hormone(s).
The RXR modulator compounds of the present invention were further tested for activity on RXR heterodimers with RARα utilizing the cotransfection assay in CV-1 cells as described in Example 12B. The RXR:RAR heterodimer cotransfection assays utilized the following expression plasmids and reporter plasmid: pRShRARα (10 ng/well, Giguere et al., 330 Nature, 624 (1987) the disclosure of which is herein incorporated by reference) or pRShRARγ (10 ng/well, Ishikawa et al., 4 Mol. Endocrin, 837 (1990) the disclosure of which is herein incorporated by reference) with Δ-MTV-LUC (50 ng/well, Hollenberg and Evans, 55 Cell, 899 (1988), the disclosure of which is herein incorporated by reference) containing an RARE which is referred to as two copies of the TRE-palindromic response element described in Umesono et al., 336 Nature, 262 (1988), the disclosure of which is herein incorporated by reference. To conduct a RXR:PPARγ heterodimer cotransfection assay, the RXRα receptor expression plasmid, pRShRXRα (10 ng/well), can be cotransfected with the PPARγ expression plasmid, pCMVhPPARγ (10 ng/well), and a reporter plasmid containing three copies of a PPARγ response element (pPREA3-tk-LUC, 50 ng/well; Mukherjee et al. 272 Journ. Biol. Chem., 8071-8076 (1997) and references cited therein, the disclosures of which are herein incorporated by reference).
Cotransfections were performed as described in Example 12B. For determination of agonist activity in the context of the RXR:RAR heterodimer, media containing compounds of the present invention in concentrations ranging from 10^−10 to 10^−5 M were added to the cells. Similarly, the reference compounds all-trans retinoic acid (ATRA)(Sigma Chemical) and TTNPB ((E)-4-[2-(5,6,7,8-tetrahydro-5,5,8,8-tetramethyl-2-naphthalenyl)-1-propenyl]benzoic acid: Hoffman LaRoche, Inc.), known RAR agonist compounds were added at similar concentrations to provide a reference point for analysis of the agonist activity of the compounds of the present invention. Antagonist efficacy and IC50 values were determined as in Example 12B.
RAR suppresses RXR ligand binding and transactivation of typical RXR agonists (e.g., LGD1069, LG100268) via allosteric interactions. Forman, B. M., Umesono, K., Chen, J., & Evans, R. M., Cell 81, 541-550 (1995) and Kurokawa, R., et. al. Nature 371, 528-531 (1994). However, when RAR is occupied, typical RXR agonists activate the heterodimer. Forman, B. M., Umesono, K, Chen, J., & Evans, R. M., Cell 81, 541-550 (1995) and Roy, B., Taneja, R., & Chambon, P., Mol. Cell. Biol. 15, 6481-6487 (1995). To examine the effects of the compounds of the present invention on the transcriptional properties of the RXR:RAR heterodimer, a heterodimer cotransfection assay as described above was employed.

Structure (SMILES) | Ki (RARα) [µM] | RARa Synergy CTF fold induction (RXR:RAR heterodimer) | RARa Synergy CTF % Efficacy (RXR:RAR heterodimer) [%]
CCCCOc1c(\C(C)=C/C=C/C(=C/C(=O)O)C(F)(F)F)cc(C(C)C)cc1C(C)C [Example 3, (2Z,4E,6Z)-7-(2-Butoxy-3,5-diisopropylphenyl)-3-trifluoromethyl-octa-2,4,6-trienoic acid] | > 10 | 1 | 6
C/C(=C/C=C(F)/C(C)=C/C(=O)O)c1cc(C(C)(C)C)cc(C(C)(C)C)c1OCC(F)F [Example 1, 7-[3,5-di-tert-butyl-2-(2,2-difluoroethoxy)-phenyl]4-fluoro-3-methyl-octa-2,4,6-trienoic acid] | 1.15 | 3 | 28
CCOc1c(\C(=C/C=C/C(C)=C/C(=O)O)C(F)(F)F)cc(C(C)(C)C)cc1C(C)(C)C [Example 5, (2E,4E,6E)-3-methyl-7-(2-ethoxy-3,5-di-tert-butylphenyl)-8,8,8-trifluoroocta-2,4,6-trienoic acid] | > 10 |  | 7
C/C(=C/C(F)=C/C(C)=C/C(=O)O)c1cc(C(C)(C)C)cc(C(C)(C)C)c1OCC(F)F [Example 2, 7-[3,5-Di-tert-butyl-2-(2,2-difluoroethoxy)-phenyl]-5-fluoro-3-methyl-octa-2,4,6-trienoic acid] | > 10 | 9 | 112
CCCCOc1c(\C(C)=C/C=C/C(=C\C(=O)O)C(F)(F)F)cc(C(C)C)cc1C(C)C [Example 4, (2E,4E,6Z)-7-(2-Butoxy-3,5-diisopropylphenyl)-3-trifluoromethyl-octa-2,4,6-trienoic acid] | > 10 | 1 | 6
